Measured values: the NIST ThermoML archive (doi:10.1021/je2006049)
Several values for one entry are separate records, joined by “and”; a condition that tells them apart may be missing. Identical values can stand only once.

Conditions: Liquid; for electrical conductivity / mass density: 101.33 kPa; for electrical conductivity: Alternating current cell with electrodes; for mass density: Vibrating tube method

CCCC[N+]1(C)CCCC1.O=S(=O)([N-]S(=O)(=O)C(F)(F)F)C(F)(F)F
Conditions	viscosity
273.15 K, 100 kPa, Falling or rolling sphere viscometry	319.28 mPa·s and 318.72 mPa·s and 320.44 mPa·s
273.15 K, 101.3 kPa, Concentric cylinders viscometry	322.4 mPa·s
273.15 K, 820 kPa, Falling or rolling sphere viscometry	318.29 mPa·s
273.15 K, 10850 kPa, Falling or rolling sphere viscometry	378.12 mPa·s
273.15 K, 20760 kPa, Falling or rolling sphere viscometry	441.79 mPa·s
273.15 K, 32190 kPa, Falling or rolling sphere viscometry	542.04 mPa·s
273.15 K, 40240 kPa, Falling or rolling sphere viscometry	621.51 mPa·s
273.15 K, 45000 kPa, Falling or rolling sphere viscometry	677.25 mPa·s
273.15 K, 50310 kPa, Falling or rolling sphere viscometry	729.34 mPa·s
273.15 K, 59200 kPa, Falling or rolling sphere viscometry	837.7 mPa·s
273.15 K, 60550 kPa, Falling or rolling sphere viscometry	855.99 mPa·s
273.15 K, 69280 kPa, Falling or rolling sphere viscometry	983.67 mPa·s
273.15 K, 70310 kPa, Falling or rolling sphere viscometry	1008.7 mPa·s
273.15 K, 80520 kPa, Falling or rolling sphere viscometry	1184.8 mPa·s
278.15 K, 100 kPa, Falling or rolling sphere viscometry	224.84 mPa·s and 224.85 mPa·s
278.15 K, 101.3 kPa, Concentric cylinders viscometry	230.9 mPa·s
283.15 K, 100 kPa, Falling or rolling sphere viscometry	167.09 mPa·s [middle of 4 runs]
283.15 K, 101.3 kPa, Concentric cylinders viscometry	170.1 mPa·s
283.15 K, 10140 kPa, Falling or rolling sphere viscometry	192.43 mPa·s
283.15 K, 19970 kPa, Falling or rolling sphere viscometry	222.97 mPa·s
283.15 K, 29990 kPa, Falling or rolling sphere viscometry	259.18 mPa·s
283.15 K, 40620 kPa, Falling or rolling sphere viscometry	303.3 mPa·s
283.15 K, 50520 kPa, Falling or rolling sphere viscometry	350.45 mPa·s
283.15 K, 59770 kPa, Falling or rolling sphere viscometry	398.94 mPa·s
283.15 K, 70190 kPa, Falling or rolling sphere viscometry	463.39 mPa·s
283.15 K, 78710 kPa, Falling or rolling sphere viscometry	517.26 mPa·s
283.15 K, 89720 kPa, Falling or rolling sphere viscometry	620.7 mPa·s
283.15 K, 89960 kPa, Falling or rolling sphere viscometry	604.22 mPa·s
283.15 K, 100390 kPa, Falling or rolling sphere viscometry	708.87 mPa·s and 702.53 mPa·s
288.15 K, 101.3 kPa, Concentric cylinders viscometry	128.4 mPa·s
293.15 K, 100 kPa, Falling or rolling sphere viscometry	99.81 mPa·s and 99.92 mPa·s
293.15 K, 101.3 kPa, Concentric cylinders viscometry	98.95 mPa·s and 99 mPa·s
298.15 K, 100 kPa, Falling or rolling sphere viscometry	76.63 mPa·s [middle of 5 runs]
298.15 K, 101.3 kPa, Concentric cylinders viscometry	77.83 mPa·s
298.15 K, 860 kPa, Falling or rolling sphere viscometry	77.22 mPa·s
298.15 K, 10370 kPa, Falling or rolling sphere viscometry	87.96 mPa·s
298.15 K, 20760 kPa, Falling or rolling sphere viscometry	100.93 mPa·s
298.15 K, 30700 kPa, Falling or rolling sphere viscometry	114.96 mPa·s
298.15 K, 40660 kPa, Falling or rolling sphere viscometry	130.58 mPa·s
298.15 K, 50630 kPa, Falling or rolling sphere viscometry	148.26 mPa·s
298.15 K, 60600 kPa, Falling or rolling sphere viscometry	167.95 mPa·s
298.15 K, 70390 kPa, Falling or rolling sphere viscometry	189.46 mPa·s
298.15 K, 80180 kPa, Falling or rolling sphere viscometry	213.75 mPa·s
298.15 K, 90600 kPa, Falling or rolling sphere viscometry	242.18 mPa·s
298.15 K, 100230 kPa, Falling or rolling sphere viscometry	271.62 mPa·s
303.15 K, 100 kPa, Falling or rolling sphere viscometry	62.82 mPa·s and 62.63 mPa·s
303.15 K, 101.3 kPa, Concentric cylinders viscometry	62.26 mPa·s
313.15 K, 100 kPa, Falling or rolling sphere viscometry	41.27 mPa·s and 41.24 mPa·s
313.15 K, 101.3 kPa, Concentric cylinders viscometry	41.72 mPa·s
323.15 K, 100 kPa, Falling or rolling sphere viscometry	29.04 mPa·s [middle of 5 runs]
323.15 K, 101.3 kPa, Concentric cylinders viscometry	29.42 mPa·s
323.15 K, 10520 kPa, Falling or rolling sphere viscometry	32.31 mPa·s
323.15 K, 20600 kPa, Falling or rolling sphere viscometry	36.21 mPa·s
323.15 K, 29970 kPa, Falling or rolling sphere viscometry	40.16 mPa·s
323.15 K, 39910 kPa, Falling or rolling sphere viscometry	44.72 mPa·s
323.15 K, 50590 kPa, Falling or rolling sphere viscometry	50.06 mPa·s
323.15 K, 60550 kPa, Falling or rolling sphere viscometry	55.73 mPa·s
323.15 K, 70490 kPa, Falling or rolling sphere viscometry	61.77 mPa·s
323.15 K, 80450 kPa, Falling or rolling sphere viscometry	68.24 mPa·s
323.15 K, 90470 kPa, Falling or rolling sphere viscometry	75.36 mPa·s
323.15 K, 100400 kPa, Falling or rolling sphere viscometry	82.99 mPa·s
333.15 K, 100 kPa, Falling or rolling sphere viscometry	21.31 mPa·s and 21.3 mPa·s
333.15 K, 101.3 kPa, Concentric cylinders viscometry	21.64 mPa·s
343.15 K, 100 kPa, Falling or rolling sphere viscometry	16.14 mPa·s and 16.13 mPa·s
343.15 K, 101.3 kPa, Concentric cylinders viscometry	16.46 mPa·s
348.15 K, 100 kPa, Falling or rolling sphere viscometry	14.07 mPa·s and 14.06 mPa·s
348.15 K, 10850 kPa, Falling or rolling sphere viscometry	15.68 mPa·s
348.15 K, 11990 kPa, Falling or rolling sphere viscometry	15.82 mPa·s
348.15 K, 21760 kPa, Falling or rolling sphere viscometry	17.54 mPa·s
348.15 K, 29210 kPa, Falling or rolling sphere viscometry	18.8 mPa·s
348.15 K, 38020 kPa, Falling or rolling sphere viscometry	20.38 mPa·s
348.15 K, 49600 kPa, Falling or rolling sphere viscometry	22.9 mPa·s
348.15 K, 64630 kPa, Falling or rolling sphere viscometry	26.45 mPa·s
348.15 K, 73060 kPa, Falling or rolling sphere viscometry	28.44 mPa·s
348.15 K, 85040 kPa, Falling or rolling sphere viscometry	31.53 mPa·s
348.15 K, 102920 kPa, Falling or rolling sphere viscometry	36.8 mPa·s
353.15 K, 100 kPa, Falling or rolling sphere viscometry	12.73 mPa·s and 12.67 mPa·s
353.15 K, 101.3 kPa, Concentric cylinders viscometry	12.91 mPa·s
363.15 K, 101.3 kPa, Concentric cylinders viscometry	10.35 mPa·s

Conditions	electrical conductivity [S/m]	mass density
273.15 K	0.0741	1416.89 kg/m3 and 1416.94 kg/m3 and 1416.7 kg/m3
278.15 K	0.101	1412.1 kg/m3
283.15 K	0.134	1407.76 kg/m3 and 1407.82 kg/m3 and 1407.6 kg/m3
288.15 K	0.174	1403.39 kg/m3 and 1403.2 kg/m3
293.14 K	0.221	–
293.15 K	–	1398.92 kg/m3 [middle of 4 runs]
298.14 K	0.276	–
298.15 K	0.275	1394.51 kg/m3 and 1394.4 kg/m3
303.15 K	0.338	1390.1 kg/m3 and 1390.17 kg/m3 and 1390 kg/m3
313.15 K	0.486	1381.31 kg/m3 and 1381.38 kg/m3 and 1381.2 kg/m3
323.14 K	0.667	–
323.15 K	–	1372.58 kg/m3 and 1372.67 kg/m3 and 1372.5 kg/m3
333.15 K	0.879	1363.89 kg/m3 and 1363.97 kg/m3 and 1363.9 kg/m3
343.14 K	1.12	–
343.15 K	–	1355.26 kg/m3 and 1355.36 kg/m3 and 1355.3 kg/m3
353.15 K	1.39	1346.69 kg/m3 and 1346.78 kg/m3 and 1346.8 kg/m3
363.15 K	–	1338.16 kg/m3 and 1338.25 kg/m3 and 1338.4 kg/m3
